Results taken from patent US7572785B2, “Substituted imidazoles as cannabinoid receptor modulators” (Merck & Co., Inc., priority 2001, dated 2009).

melting point: 165 °C
SMILES: Cn1c(C(=O)NC2CCCCC2)nc(-c2ccc(Cl)cc2Cl)c1-c1ccc(Cl)cc1
